Data: ChEMBL document CHEMBL1201862, “PubChem BioAssay data set” (2004)
The source made the active and inactive calls.

How the values were obtained:
[1] = biological target: T1, Mannose-6-phosphate isomerase (Homo sapiens, UniProt P34949); experiment: MPI inhibition at elevated mannose 6-phosphate – biochemical, fluorescence intensity, high mannose 6-phosphate, primary screen (AID 1220)
T1 sequence (P34949 whole entry): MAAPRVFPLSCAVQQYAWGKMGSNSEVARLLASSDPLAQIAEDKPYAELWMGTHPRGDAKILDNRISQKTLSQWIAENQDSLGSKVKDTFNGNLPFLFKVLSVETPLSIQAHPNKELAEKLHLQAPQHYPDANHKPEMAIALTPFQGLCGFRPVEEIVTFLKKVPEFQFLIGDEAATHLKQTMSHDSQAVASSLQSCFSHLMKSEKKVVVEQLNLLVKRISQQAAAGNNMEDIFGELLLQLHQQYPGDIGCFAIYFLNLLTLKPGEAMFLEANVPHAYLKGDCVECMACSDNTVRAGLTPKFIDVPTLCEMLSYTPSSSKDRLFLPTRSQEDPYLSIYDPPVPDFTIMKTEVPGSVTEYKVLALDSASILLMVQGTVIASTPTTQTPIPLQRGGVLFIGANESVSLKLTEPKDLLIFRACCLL

[2] = NIH3T3 cell viability loss – ATP luminescence, mouse fibroblasts, counter-screen, dose response (AID 2010); assay type: functional, cell-based;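 further: cells exposed to compound for about 90 hours before reading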
[3] = blockers of CRF-binding protein–CRF-R2 complex – cell-based, uHTS hits, 384-well, dose response (AID 651639); assay type: functional, Homo sapiens; details: read-out: IC50_Mean
[4] = Trypanosoma cruzi growth suppression in host cells – NIH3T3 host cells, beta-gal luminescence, confirmation (AID 2044); assay type: functional, cell-based;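 further: intracellular parasites grown in NIH/3T3 mouse fibroblasts as host cells; luminescent beta-galactosidase reporter signal from transgenic T. cruzi replicating inside host cells; inhibitors lower the luminescence signal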
[5] = biological target: T2, Corticotropin-releasing factor receptor 2/Corticotropin-releasing factor-binding protein (Homo sapiens, UniProt P24387+Q13324); experiment: Dose Response confirmation of uHTS hits for small molecule antagonists of the CRF-binding protein and CRF-R2 receptor complex.; assay type: functional; details: read-out: IC50_Mean
T2 sequence (Q13324 whole entry): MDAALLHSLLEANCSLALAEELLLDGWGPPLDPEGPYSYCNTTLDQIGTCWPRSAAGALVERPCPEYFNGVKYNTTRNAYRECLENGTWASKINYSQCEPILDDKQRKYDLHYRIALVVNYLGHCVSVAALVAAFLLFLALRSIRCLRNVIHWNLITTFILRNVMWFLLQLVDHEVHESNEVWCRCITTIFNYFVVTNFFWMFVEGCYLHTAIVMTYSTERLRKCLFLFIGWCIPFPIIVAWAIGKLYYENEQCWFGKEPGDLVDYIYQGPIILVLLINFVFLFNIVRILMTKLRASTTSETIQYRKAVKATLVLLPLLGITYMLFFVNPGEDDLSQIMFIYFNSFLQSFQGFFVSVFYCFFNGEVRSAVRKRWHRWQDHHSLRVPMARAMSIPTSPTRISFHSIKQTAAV
T2 sequence (P24387 whole entry): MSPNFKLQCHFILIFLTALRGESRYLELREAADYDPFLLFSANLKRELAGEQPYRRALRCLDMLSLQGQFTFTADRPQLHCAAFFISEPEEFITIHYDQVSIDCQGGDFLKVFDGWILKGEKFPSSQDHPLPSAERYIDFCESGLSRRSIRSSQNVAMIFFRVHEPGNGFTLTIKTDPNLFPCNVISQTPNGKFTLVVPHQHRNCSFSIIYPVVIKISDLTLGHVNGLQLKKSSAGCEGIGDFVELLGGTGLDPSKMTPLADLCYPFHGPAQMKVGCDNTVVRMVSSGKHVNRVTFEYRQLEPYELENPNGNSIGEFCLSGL

[6] = biological target: T2, Corticotropin-releasing factor receptor 2/Corticotropin-releasing factor-binding protein; experiment: activators of CRF receptor 2 with binding protein – uHTS hits, confirmation (AID 602473); assay type: functional; details: read-out: EC50_Mean
[7] = biological target: Prothrombin (Homo sapiens, UniProt P00734); experiment: Thrombin 1536 HTS Dose Response Confirmation. [Related pubchem assays: 1046 (Thrombin 1536 HTS; hits were confirmed in this assay)]; assay type: functional
[8] = biological target: Cytochrome P450 2D6 (Homo sapiens, UniProt P10635);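 further: CYP2D6 member of a cytochrome P450 panel assay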
Chain of Cytochrome P450 2D6 (P10635 whole entry): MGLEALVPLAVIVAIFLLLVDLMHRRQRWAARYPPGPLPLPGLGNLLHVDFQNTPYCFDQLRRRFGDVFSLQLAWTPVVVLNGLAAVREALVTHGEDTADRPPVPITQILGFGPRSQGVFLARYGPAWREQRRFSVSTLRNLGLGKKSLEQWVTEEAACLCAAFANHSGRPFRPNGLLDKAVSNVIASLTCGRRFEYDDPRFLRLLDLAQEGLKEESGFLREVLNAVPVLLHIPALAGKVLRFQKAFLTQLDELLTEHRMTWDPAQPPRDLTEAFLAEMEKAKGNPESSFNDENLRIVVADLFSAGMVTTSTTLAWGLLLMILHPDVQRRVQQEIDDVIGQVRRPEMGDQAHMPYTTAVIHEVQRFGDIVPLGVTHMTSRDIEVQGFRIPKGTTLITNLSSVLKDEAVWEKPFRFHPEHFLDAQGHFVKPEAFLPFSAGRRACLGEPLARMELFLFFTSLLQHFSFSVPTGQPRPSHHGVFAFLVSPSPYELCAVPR

[9] = biological target: T3, High affinity choline transporter 1 (Homo sapiens, UniProt Q9GZV3); experiment: human choline transporter blockers, potency – cell-based, 5-point CRC, membrane potential dye, dose response (AID 504840); assay type: functional
T3 sequence (Q9GZV3 whole entry): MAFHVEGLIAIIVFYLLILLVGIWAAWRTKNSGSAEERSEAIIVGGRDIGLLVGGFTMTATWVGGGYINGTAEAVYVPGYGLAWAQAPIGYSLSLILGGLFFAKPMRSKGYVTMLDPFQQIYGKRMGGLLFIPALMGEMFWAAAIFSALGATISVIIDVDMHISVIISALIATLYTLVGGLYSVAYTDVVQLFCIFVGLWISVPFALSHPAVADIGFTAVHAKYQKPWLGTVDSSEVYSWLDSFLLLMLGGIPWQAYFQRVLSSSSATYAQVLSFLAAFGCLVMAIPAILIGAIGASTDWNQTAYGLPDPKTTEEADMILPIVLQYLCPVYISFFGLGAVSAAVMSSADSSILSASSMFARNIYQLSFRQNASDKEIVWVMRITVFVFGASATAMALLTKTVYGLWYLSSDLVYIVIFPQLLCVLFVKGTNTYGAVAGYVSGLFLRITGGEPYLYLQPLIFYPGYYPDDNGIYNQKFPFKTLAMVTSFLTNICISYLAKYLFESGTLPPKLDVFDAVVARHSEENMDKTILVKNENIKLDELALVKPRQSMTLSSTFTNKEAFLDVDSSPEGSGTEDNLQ

[10] = cells
[11] = HIV-1 AD8 envelope cell-cell fusion blockers – cherry-pick, dose response (AID 652062); assay type: functional, cell-based;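 further: luciferase signal from cell-cell fusion driven by HIV-1 clade B AD8 Env; potency is for inhibitors of fusion seen as a drop in luminescence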
[12] = blockers of HIV-1 ZM109 envelope-driven cell-cell fusion – HeLa effector, CEM target cells, luciferase, cherry-pick, dose response (AID 652058); assay type: functional, cell-based;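 further: luciferase signal from HIV-1 Env mediated cell-cell fusion of effector and target cells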
[13] = blockers of HIV-1 envelope-mediated cell-cell fusion – cherry-pick, dose response (AID 652057); assay type: functional, cell-based
[14] = biological target: T4, DNA repair protein RAD52 homolog (Homo sapiens, UniProt P43351); assay type: functional, biochemical
T4 sequence (P43351 whole entry): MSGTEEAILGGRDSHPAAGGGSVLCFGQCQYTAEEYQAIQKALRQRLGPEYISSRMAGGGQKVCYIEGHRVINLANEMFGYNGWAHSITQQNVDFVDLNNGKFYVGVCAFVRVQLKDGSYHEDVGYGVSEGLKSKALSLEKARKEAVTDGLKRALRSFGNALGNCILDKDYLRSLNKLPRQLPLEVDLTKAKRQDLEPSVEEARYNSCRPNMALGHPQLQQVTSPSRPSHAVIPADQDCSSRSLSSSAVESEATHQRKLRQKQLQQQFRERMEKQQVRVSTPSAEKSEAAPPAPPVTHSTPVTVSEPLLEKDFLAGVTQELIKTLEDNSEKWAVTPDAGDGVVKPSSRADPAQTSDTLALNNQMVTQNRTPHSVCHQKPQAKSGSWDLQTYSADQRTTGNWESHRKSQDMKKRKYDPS

[15] = biological target: T5, RNA-binding protein pos-1 (Caenorhabditis elegans, UniProt G5EF15); experiment: disruptors of C. elegans POS-1 RNA interaction – biochemical, fluorescence polarization, dose response (AID 1964);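 further: purified POS-1 fused to maltose binding protein made in E. coli; potency of compounds blocking POS-1 binding to fluorescent RNA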
T5 sequence (G5EF15 whole entry): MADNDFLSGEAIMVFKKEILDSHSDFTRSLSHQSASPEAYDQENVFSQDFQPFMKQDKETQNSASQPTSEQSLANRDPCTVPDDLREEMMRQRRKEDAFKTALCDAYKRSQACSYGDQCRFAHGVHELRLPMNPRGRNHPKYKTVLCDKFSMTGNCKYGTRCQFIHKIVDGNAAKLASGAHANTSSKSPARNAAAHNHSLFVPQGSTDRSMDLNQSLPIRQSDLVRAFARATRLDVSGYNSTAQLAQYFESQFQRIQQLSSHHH

[16] = biological target: T6, Zinc finger protein mex-5 (Caenorhabditis elegans, UniProt Q9XUB2); experiment: potency of MEX-5 RNA-binding blockers – biochemical, C. elegans, fluorescence polarization, dose response (AID 1960)
T6 sequence (Q9XUB2 whole entry): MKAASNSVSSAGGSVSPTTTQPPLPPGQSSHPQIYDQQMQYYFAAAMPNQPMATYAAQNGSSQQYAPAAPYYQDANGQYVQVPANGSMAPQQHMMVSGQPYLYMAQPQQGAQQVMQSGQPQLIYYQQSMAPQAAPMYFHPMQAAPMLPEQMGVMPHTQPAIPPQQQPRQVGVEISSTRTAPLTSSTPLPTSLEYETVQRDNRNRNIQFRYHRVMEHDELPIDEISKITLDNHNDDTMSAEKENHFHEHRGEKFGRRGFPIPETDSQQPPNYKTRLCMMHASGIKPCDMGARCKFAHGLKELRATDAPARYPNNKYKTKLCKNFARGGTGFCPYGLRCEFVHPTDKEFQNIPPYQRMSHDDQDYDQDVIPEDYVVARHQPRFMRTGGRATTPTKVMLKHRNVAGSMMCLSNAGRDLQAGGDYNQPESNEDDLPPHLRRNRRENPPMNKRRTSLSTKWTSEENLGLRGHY

[17] = biological target: T7, Coagulation factor XII (Homo sapiens, UniProt P00748); assay type: functional;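 further: activated factor XIIa alpha cleaving a fluorogenic AMC peptide substrate; inhibitor potency from loss of enzyme activity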
T7 sequence (P00748 whole entry): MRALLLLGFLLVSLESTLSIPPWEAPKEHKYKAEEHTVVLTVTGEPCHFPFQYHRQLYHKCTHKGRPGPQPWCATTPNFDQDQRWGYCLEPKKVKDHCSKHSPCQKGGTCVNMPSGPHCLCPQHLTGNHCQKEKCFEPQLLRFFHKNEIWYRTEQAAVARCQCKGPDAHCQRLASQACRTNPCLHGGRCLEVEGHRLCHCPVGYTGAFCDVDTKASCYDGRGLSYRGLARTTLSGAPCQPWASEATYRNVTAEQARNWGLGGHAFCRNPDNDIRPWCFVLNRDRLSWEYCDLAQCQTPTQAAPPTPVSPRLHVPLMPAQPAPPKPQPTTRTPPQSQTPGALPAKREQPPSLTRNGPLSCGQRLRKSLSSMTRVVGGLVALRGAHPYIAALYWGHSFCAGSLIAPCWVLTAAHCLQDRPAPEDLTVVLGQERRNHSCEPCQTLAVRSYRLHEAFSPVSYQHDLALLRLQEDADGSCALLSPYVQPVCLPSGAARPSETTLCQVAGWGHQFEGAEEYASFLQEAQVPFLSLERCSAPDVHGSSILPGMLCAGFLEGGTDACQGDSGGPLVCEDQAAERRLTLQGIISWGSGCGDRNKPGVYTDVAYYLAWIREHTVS

[18] = off-target signal loss in HeLa-CEM21 co-culture – HeLa F-luc CTL cells, cherry-picked, counter-screen for HIV-1 Env fusion inhibitor project, dose response (AID 652040); assay type: functional, cell-based;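 further: potency for signal decrease marking cytotoxic or nonspecific inhibition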

CCN(CC)C(=S)SC1=CCS(=O)(=O)C1
IC50 [1]: 24.5 µM (active)

O=C(Nc1nc2ccc(S(=O)(=O)N3CCCC3)cc2s1)c1ccccn1
EC50 [2]: 5.13 µM (active)
IC50 [3]: > 20 µM (inactive)
EC50 [4]: 2.15 µM (active)
IC50 [5]: 28.6 µM (active)
EC50 [6]: > 53 µM (inactive)

CC1=C(c2ccccc2)C(O)(c2ccccc2)C(C)C1=O (centres undefined)
IC50 [3]: 8.13 µM (active)
IC50 [5]: 13.9 µM (active)
EC50 [6]: > 53 µM (inactive)

CCOC(=O)c1ccccc1Oc1c(F)c(F)nc(NCCO)c1F
IC50 [7]: > 50 µM (not active)
AC50 [8]: 20 µM (inconclusive)
IC50 [9]: 14.5 µM (active)

CC(=O)Oc1cc(OC(C)=O)c2c(C)cc(=O)oc2c1
IC50 [10]: 25.3 µM (active)

COc1ccc(S(=O)(=O)Nc2ccc3c(c2)CC(=O)N([C@@H](C)CO)C[C@H](C)[C@H](CN(C)S(=O)(=O)c2ccccc2)O3)cc1
AC50 [11]: 11.6 µM (active)
AC50 [12]: 1.82 µM (active)
AC50 [13]: 2.12 µM (active)

N#Cc1c2ccc(OCC(N)=O)cc2n2ccccc12
IC50 [1]: > 50 µM (not active)

COc1ccc2c(c1)OC(O)(C(F)(F)C(F)F)CC2=O (centres undefined)
IC50 [9]: 13.2 µM (active)
EC50 [6]: 15.6 µM (active)

Cc1ccc2nc(NC(=N)N)nc(C)c2c1
AC50 [14]: 12.6 µM (active)

COc1ccc(/C=C/C(=O)NCc2cn(C)nc2C)cc1COc1ccc(Cl)cc1Br
IC50 [3]: > 20 µM (inactive)
IC50 [5]: 6.89 µM (active)
EC50 [6]: > 53 µM (inactive)

COc1cc2ccccc2cc1C(=O)NC(=S)Nc1cc(C(=O)O)ccc1C
EC50 [15]: > 300 µM (not active)
EC50 [16]: > 300 µM (not active)
IC50 [17]: > 50 µM (inactive)

COCCNc1nc2c(S(=O)(=O)c3cc(C)ccc3C)nnn2c2ccccc12
IC50 [3]: 10.6 µM (active)
IC50 [5]: 39 µM (active)
EC50 [6]: > 53 µM (inactive)

CSc1ccc(S(=O)(=O)N2CCC(C(=O)N3CCc4ccccc4C3)CC2)cc1
IC50 [9]: 17.4 µM (active)

COc1ccc(OC(=O)N(C)C[C@@H]2OCc3ccccc3-c3c(n(C)c4ccccc34)C(=O)N([C@H](C)CO)C[C@@H]2C)cc1
AC50 [18]: 2.43 µM (active)
AC50 [11]: 3.25 µM (active)
AC50 [12]: 1.44 µM (active)
AC50 [13]: 1.62 µM (active)

CN(CC(=O)NCCc1ccc(S(N)(=O)=O)cc1)CC(=O)Nc1ccc(Cl)c(C(F)(F)F)c1
AC50 [18]: 7.96 µM (active)
AC50 [11]: 11.9 µM (active)
AC50 [12]: 2.95 µM (active)
AC50 [13]: 5.63 µM (active)

N=C(N)Nc1ccc(/C=C2\C=Cc3ccccc32)cc1
AC50 [14]: 13.2 µM (active)
